Experimental data: the supplement of paper PMC4862054

Tests used:
Conditions in all cases: incubation time: 72 h
BT-549 [1] = assay: drug sensitivity score (DSS), CellTox Green (DSS (AUC-based score)); higher = stronger drug effect (viability inhibition or cytotoxicity); extreme values may be limits of the assay
Procedure, shortened: (§1)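 Each compound occupied 5 concentrations in 10-fold steps over its own 10,000-fold range in 384-well plates, into which breast cancer cell lines were seeded as 20 µl suspension. Following 72 h of incubation, CellTox Green fluorescence (485/520 nm) was measured, and CellTiter-Glo luminescence was measured after 10 min at room temperature. Plates were individually normalised to 0.1 % DMSO and a positive kill control. From the area under the fitted dose-response curve, a drug sensitivity score was calculated.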

MFM-223 [2] = assay: as above
Procedure, shortened: as §1

MDA-MB-468 = assay: as above
Procedure, shortened: as §1

CAL-148 [3] = assay: as above
Procedure, shortened: as §1

MCF-10A [4] = assay: as above
Procedure, shortened: as §1

MDA-MB-231 [5] = assay: as above
Procedure, shortened: as §1

CAL-85-1 = assay: as above
Procedure, shortened: as §1

MDA-MB-453 = assay: as above
Procedure, shortened: as §1

HCC1599 = assay: as above
Procedure, shortened: as §1

BT-474 = assay: as above
Procedure, shortened: as §1

HCC1143 [6] = assay: as above
Procedure, shortened: as §1

CAL-120 [7] = assay: as above
Procedure, shortened: as §1

DU-4475 [8] = assay: as above
Procedure, shortened: as §1

HDQ-P1 = assay: as above
Procedure, shortened: as §1

CAL-51 = assay: as above
Procedure, shortened: as §1

MDA-MB-436 [9] = assay: as above
Procedure, shortened: as §1

BT-549 [10] = assay: drug sensitivity score (DSS), CellTiter-Glo (DSS (AUC-based score)); higher = stronger drug effect (viability inhibition or cytotoxicity); extreme values may be limits of the assay
Procedure, shortened: as §1

MFM-223 [11] = assay: as above
Procedure, shortened: as §1

SK-BR-3 = assay: as above
Procedure, shortened: as §1

CAL-148 [12] = assay: as above
Procedure, shortened: as §1

MCF-10A [13] = assay: as above
Procedure, shortened: as §1

MDA-MB-231 [14] = assay: as above
Procedure, shortened: as §1

HCC1143 [15] = assay: as above
Procedure, shortened: as §1

CAL-120 [16] = assay: as above
Procedure, shortened: as §1

DU-4475 [17] = assay: as above
Procedure, shortened: as §1

Hs578T = assay: as above
Procedure, shortened: as §1

MDA-MB-436 [18] = assay: as above
Procedure, shortened: as §1

| SMILES | drug sensitivity score (BT-549 [1]) | drug sensitivity score (MFM-223 [2]) | drug sensitivity score (MDA-MB-468) | drug sensitivity score (CAL-148 [3]) | drug sensitivity score (MCF-10A [4]) | drug sensitivity score (MDA-MB-231 [5]) | drug sensitivity score (CAL-85-1) | drug sensitivity score (MDA-MB-453) | drug sensitivity score (HCC1599) | drug sensitivity score (BT-474) | drug sensitivity score (HCC1143 [6]) | drug sensitivity score (CAL-120 [7]) | drug sensitivity score (DU-4475 [8]) | drug sensitivity score (HDQ-P1) | drug sensitivity score (CAL-51) | drug sensitivity score (MDA-MB-436 [9]) | drug sensitivity score (BT-549 [10]) | drug sensitivity score (MFM-223 [11]) | drug sensitivity score (SK-BR-3) | drug sensitivity score (CAL-148 [12]) | drug sensitivity score (MCF-10A [13]) | drug sensitivity score (MDA-MB-231 [14]) | drug sensitivity score (HCC1143 [15]) | drug sensitivity score (CAL-120 [16]) | drug sensitivity score (DU-4475 [17]) | drug sensitivity score (Hs578T) | drug sensitivity score (MDA-MB-436 [18]) |
| --- | --- | --- | --- | --- | --- | --- | --- | --- | --- | --- | --- | --- | --- | --- | --- | --- | --- | --- | --- | --- | --- | --- | --- | --- | --- | --- | --- |
| CN(c1ccccc1CNc1nc(Nc2ccc3c(c2)CC(=O)N3)ncc1C(F)(F)F)S(C)(=O)=O | 0.974 | 0 | 0 | 0 | 9.63 | 8.46 | 3.86 | 0 | 1.23 | 0 | 5.18 | 0 | 0 | 9.69 | 17.6 | 0 | 5.64 | 2.28 | 5.83 | 1.24 | 9.21 | 7.82 | 4.97 | 4.65 | 7.61 | 4.29 | 2.86 |
| COc1ncc(-c2ccc3nccc(-c4ccnnc4)c3c2)cc1NS(=O)(=O)c1ccc(F)cc1F | 0 | 3.89 | 9.19 | 6.5 | 0.561 | 3.08 | 0 | 0 | 0 | 6.83 | 0 | 0 | 0 | 0 | 6.6 | 0 | 16.8 | 14.3 | 20.6 | 12.2 | 17.5 | 10.3 | 13.3 | 13 | 7.12 | 14 | 11.6 |
| C[C@@]1(C(=O)Nc2ccc(F)nc2)CCCN1c1nc(Nc2cc(C3CC3)n[nH]2)c2cccn2n1 | 0 | 3.84 | 18.2 | 2.31 | 6.69 | 6.52 | 0 | 0 | 0 | 0 | 9.05 | 3.17 | 0 | 4.62 | 10.5 | 0 | 9.6 | 10.2 | 6.12 | 0 | 25 | 9.67 | 6.03 | 10.3 | 5.67 | 3.38 | 7.17 |
| Nc1nccc(-c2c(-c3ccc(F)cc3)ncn2C2CCCCC2)n1 | 0 | 0 | 0 | 0 | 3.55 | 0 | 0 | 0 | 0 | 0 | 0 | 0 | 0 | 0 | 0 | 0 | 0 | 0 | 0 | 0 | 0.945 | 0 | 0 | 0 | 0 | 0 | 0 |
| COc1c(C)cnc(Cn2cnc3c(Cl)nc(N)nc32)c1C [BIIB021] | 0 | 0 | 0 | 16 | 15.3 | 6.24 | 6.72 | 0 | 0 | 4.79 | 0 | 0 | 4.2 | 3.67 | 5.48 | 0 | 15.7 | 13.2 | 21.9 | 15.8 | 15.5 | 13.4 | 11.5 | 10.1 | 17.8 | 8.9 | 13.3 |
| CC(C)C[C@H](NC(=O)[C@H](Cc1ccccc1)NC(=O)c1cnccn1)B(O)O [Bortezomib] | 6.42 | 12.5 | 33.3 | 13.5 | 7.83 | 22.4 | 27.8 | 2.35 | 0 | 6.53 | 6.67 | 13.6 | 2.21 | 20.1 | 18.7 | 16.6 | 28.8 | 27.1 | 26.4 | 14.4 | 9.83 | 22.4 | 19.3 | 19.9 | 17.5 | 22.8 | 26 |
| CS(=O)(=O)OCCCCOS(C)(=O)=O [Busulfan] | 0 | 0 | 3.07 | 0 | 0 | 0 | 0 | 0 | 0 | 0 | 0 | 0 | 0 | 2.69 | 0 | 0 | 0 | 0 | 0 | 0 | 0 | 0 | 0 | 0 | 0 | 0 | 0 |
